Experimental data taken from PMC10967822, “Antimicrobial Indole-3-Carboxamido-Polyamine Conjugates Target Bacterial Membranes and Are Antibiotic Potentiators” (Biomolecules, 2024).
Values after ≈ are worked out from the molar mass of the structure shown.

Assays:
P. aeruginosa ATCC 27853 [1] = experiment: MIC, broth dilution, P. aeruginosa; format: cell-based, Pseudomonas aeruginosa; conditions: Pseudomonas aeruginosa, ATCC27853; P. aeruginosa ATCC 27853, 18 h; read-out: MIC Pa
P. aeruginosa ATCC 27853 [2] = experiment: Doxycycline potentiation against P. aeruginosa; format: cell-based, Pseudomonas aeruginosa; conditions: doxycycline at 2 µg/mL (4.5 µM); for Dox/Pa fold-change (intrinsic MIC / combination MIC): P. aeruginosa ATCC 27853; for Dox/Pa: concentration required to restore doxycycline activity (combination MIC): P. aeruginosa ATCC 27853, mean n = 3
From the text: (§1) These measurements were independently repeated in triplicate.

E. coli ATCC 25922 [3] = experiment: MIC, broth dilution, E. coli; format: cell-based, Escherichia coli; conditions: Escherichia coli, ATCC25922; E. coli ATCC 25922, 18 h
E. coli ATCC 25922 [4] = experiment: Erythromycin potentiation against E. coli; format: cell-based, Escherichia coli; conditions: erythromycin at 2 µg/mL (2.7 µM); for Erythro/Ec fold-change (intrinsic MIC / combination MIC): E. coli; for Erythro/Ec: concentration required to restore erythromycin activity (combination MIC): mean n = 3
From the text: as §1

A. baumannii ATCC 19606 = experiment: MIC, broth microdilution (CO-ADD), A. baumannii; format: cell-based, Acinetobacter baumannii; conditions: Acinetobacter baumannii, ATCC19606, top dose 32 µg/mL
MRSA ATCC 43300 = experiment: MIC, broth microdilution (CO-ADD), MRSA; format: cell-based, methicillin-resistant S. aureus; conditions: Staphylococcus aureus; MRSA ATCC 43300; top dose 32 µg/mL; read-out: MIC MRSA
[5] = Cytotoxicity assay (resazurin); format: cell-based; conditions: human, HEK293 cells, mean n = 2
human red blood cells = experiment: Hemolytic assay; format: cell-based; conditions: 10% hemolytic activity, mean n = 2
Protocol: Human whole blood was washed three times with three volumes of 0.9% NaCl and then resuspended in the same solution to a concentration of 0.5 × 10^8 cells/mL, as determined by the manual cell count in a Neubauer hemocytometer. The washed cells were then added to the 384-well compound-containing plates for a final volume of 50 μL. After a 10 min shake on a plate shaker, the plates were then incubated for 1 h at 37 °C. After incubation, the plates were centrifuged at 1000× g for 10 min to pellet cells and debris; 25 μL of the supernatant was then transferred to a polystyrene 384-well assay plate. Hemolysis was determined by measuring the supernatant absorbance at […] (OD405). The absorbance was measured using a Tecan M1000 Pro monochromator plate reader. HC10 and HC50 (concentrations at 10% and 50% hemolysis, respectively) were calculated by a curve fitting the inhibition values vs. log (concentration) using a sigmoidal dose–response function with variable fitting values for the top, bottom, and slope.

S. aureus ATCC 25923 = experiment: MIC, broth dilution, S. aureus; format: cell-based, Staphylococcus aureus; conditions: Staphylococcus aureus, ATCC25923; S. aureus ATCC 25923, 18 h; read-out: MIC Sa
[6] = test system: C. neoformans ATCC 208821; experiment: Antifungal MIC (CO-ADD), C. neoformans; format: cell-based; conditions: Cryptococcus neoformans, ATCC208821, top dose 32 µg/mL
Protocol: (§2) For the antifungal assay, fungi strains were cultured for 3 days on YPD agar at 30 °C. A yeast suspension of 1 × 10^6 to 5 × 10^6 CFU/mL was prepared from five colonies. These stock suspensions were diluted with a yeast nitrogen base (YNB) (Becton Dickinson, 233520, New South Wales, Australia) broth to a final concentration of 2.5 × 10^3 CFU/mL. […] The plates were covered and incubated at 35 °C for 36 h without shaking. C. albicans MICs were determined by measuring the absorbance at OD530. For C. neoformans, resazurin was added at a 0.006% final concentration to each well and incubated for a further 3 h before the MICs were determined by measuring the absorbance at OD570–600. […] Fluconazole was used as a positive fungal inhibitor standard for C. albicans and C. neoformans. […] The quality control (QC) of the assays was determined by the antimicrobial controls and the Z′-factor (using positive and negative controls).

C. albicans ATCC 90028 = experiment: Antifungal MIC (CO-ADD), C. albicans; format: cell-based; conditions: Candida albicans, ATCC90028, top dose 32 µg/mL
Protocol: as §2

[7] = test system: K. pneumoniae ATCC 700603; experiment: MIC, broth microdilution (CO-ADD), K. pneumoniae; conditions: top dose 32 µg/mL

| Structure (SMILES) | MIC (P. aeruginosa ATCC 27853 [1]) | Dox/Pa fold-change (intrinsic MIC / combination MIC) (P. aeruginosa ATCC 27853 [2]) | Dox/Pa: concentration required to restore doxycycline activity (combination MIC) (P. aeruginosa ATCC 27853 [2]) | MIC (E. coli ATCC 25922 [3]) | Erythro/Ec fold-change (intrinsic MIC / combination MIC) (E. coli ATCC 25922 [4]) | Erythro/Ec: concentration required to restore erythromycin activity (combination MIC) (E. coli ATCC 25922 [4]) | MIC (A. baumannii ATCC 19606) | MIC (MRSA ATCC 43300) | IC50 at 20 h [5] | Hemolysis HC10 (human red blood cells) | MIC (S. aureus ATCC 25923) | MIC [6] | MIC (C. albicans ATCC 90028) | MIC Kp [7] |
| --- | --- | --- | --- | --- | --- | --- | --- | --- | --- | --- | --- | --- | --- | --- |
| O=C(NCCCNCCCCCCNCCCNC(=O)c1c[nH]c2ccccc12)c1c[nH]c2ccccc12.O=C(O)C(F)(F)F.O=C(O)C(F)(F)F [Compound 12b] | > 268 µM | > 8 fold | 33.6 µM | 134 µM | 4 fold | 33.6 µM | > 43 µM | ≤ 0.34 µM | > 43 µM | >43 µM | 268 µM | ≤ 0.34 µM | > 43 µM | >43 µM |
| O=C(NCCCNCCCCCCCNCCCNC(=O)c1c[nH]c2ccccc12)c1c[nH]c2ccccc12.O=C(O)C(F)(F)F.O=C(O)C(F)(F)F [Compound 12c] | > 263 µM | > 4 fold | 65.9 µM | 65.9 µM | 1 fold | 65.9 µM | > 42 µM | ≤ 0.33 µM | > 42 µM | >42 µM | 132 µM | ≤ 0.33 µM | > 42 µM | >42 µM |
| O=C(NCCCNCCCCCCCCCCNCCCNC(=O)c1c[nH]c2ccccc12)c1c[nH]c2ccccc12.O=C(O)C(F)(F)F.O=C(O)C(F)(F)F [Compound 12e] | > 250 µM | > 4 fold | 62.4 µM | 125 µM | 2 fold | 62.4 µM | > 40 µM | ≤ 0.31 µM | > 40 µM | >40 µM | 31.2 µM | ≤ 0.31 µM | > 40 µM | >40 µM |
| O=C(NCCCNCCCCCCCCCCCCNCCCNC(=O)c1c[nH]c2ccccc12)c1c[nH]c2ccccc12.O=C(O)C(F)(F)F.O=C(O)C(F)(F)F [Compound 12f] | 121 µM | 8 fold | 15.1 µM | 15.1 µM | 2 fold | 7.54 µM | 4.82 µM | ≤ 0.3 µM | > 39 µM | >39 µM | 3.77 µM | ≤ 0.3 µM | ≤ 0.3 µM | >39 µM |
| O=C(NCCCNCCCCCCCNCCCNC(=O)c1c[nH]c2ccc(Br)cc12)c1c[nH]c2ccc(Br)cc12 [Compound 13c] | 220 µM (≈ 151 µg/mL) | 16 fold | 13.6 µM | 110 µM (≈ 75.7 µg/mL) | 16 fold | 6.82 µM | > 35 µM | ≤ 0.27 µM | > 35 µM | >35 µM | 13.6 µM (≈ 9.36 µg/mL) | ≤ 0.27 µM | 35 µM (≈ 24.1 µg/mL) | >35 µM |
| O=C(NCCCNCCCCCCCCNCCCNC(=O)c1c[nH]c2ccc(Br)cc12)c1c[nH]c2ccc(Br)cc12 [Compound 13d] | 107 µM (≈ 75.2 µg/mL) | 8 fold | 13.4 µM | 53.7 µM (≈ 37.7 µg/mL) | 8 fold | 6.72 µM | ≤ 0.27 µM | ≤ 0.27 µM | > 34 µM | >34 µM | 3.36 µM (≈ 2.36 µg/mL) | ≤ 0.27 µM | ≤ 0.27 µM | >34 µM |
| O=C(NCCCNCCCCCCCCCCNCCCNC(=O)c1c[nH]c2ccc(Br)cc12)c1c[nH]c2ccc(Br)cc12 [Compound 13e] | 104 µM (≈ 76 µg/mL) | 4 fold | 26.1 µM | 52.2 µM (≈ 38.1 µg/mL) | 8 fold | 6.52 µM | 16.7 µM (≈ 12.2 µg/mL) | ≤ 0.26 µM | > 33 µM | >33 µM | 3.26 µM (≈ 2.38 µg/mL) | ≤ 0.26 µM | 4.17 µM (≈ 3.05 µg/mL) | >34 µM |
| O=C(NCCCNCCCCCCCCCCCCNCCCNC(=O)c1c[nH]c2ccc(Br)cc12)c1c[nH]c2ccc(Br)cc12.O=C(O)C(F)(F)F.O=C(O)C(F)(F)F [Compound 13f] | 203 µM | 4 fold | 50.7 µM | > 203 µM | > 8 fold | 25.3 µM | 2.03 µM | ≤ 0.25 µM | ≤ 0.25 µM | 14.2 µM | 3.17 µM | ≤ 0.25 µM | ≤ 0.25 µM | ≤0.25 µM |
| COc1ccc2[nH]cc(C(=O)NCCCNCCCCCCNCCCNC(=O)c3c[nH]c4ccc(OC)cc34)c2c1 [Compound 14b] | > 248 µM | > 8 fold | 31.1 µM | 248 µM (≈ 143 µg/mL) | 4 fold | 62.1 µM | > 40 µM | ≤ 0.31 µM | > 40 µM | >40 µM | 248 µM (≈ 143 µg/mL) | ≤ 0.31 µM | > 40 µM | >40 µM |
| COc1ccc2[nH]cc(C(=O)NCCCNCCCCCCCCNCCCNC(=O)c3c[nH]c4ccc(OC)cc34)c2c1 [Compound 14d] | > 240 µM | > 8 fold | 30.0 µM | 120 µM (≈ 72.6 µg/mL) | 0.5 fold | 240 µM | > 38 µM | 19.2 µM (≈ 11.6 µg/mL) | > 38 µM | >38 µM | 60 µM (≈ 36.3 µg/mL) | ≤ 0.3 µM | > 38 µM | >38 µM |
| COc1ccc2[nH]cc(C(=O)NCCCNCCCCCCCCCCNCCCNC(=O)c3c[nH]c4ccc(OC)cc34)c2c1.O=C(O)C(F)(F)F.O=C(O)C(F)(F)F [Compound 14e] | 232 µM | 8 fold | 29.0 µM | 58.1 µM | 0.5 fold | 116 µM | > 37 µM | ≤ 0.29 µM | > 37 µM | >37 µM | 29 µM | ≤ 0.29 µM | > 37 µM | >37 µM |
